Assay results from patent US10316021B2, “Heteroarylphenoxy benzamide kappa opioid ligands” (Pfizer Inc., priority 2016, dated 2019).
Where two headings read alike, the source gives them in different places.

Legend:
[1] = test system: THLE-2 (transformed human liver epithelial) cells; experiment: Transformed human liver epithelial (THLE) assay, ATP depletion 72 h; type: cell-based; settings: for cytotoxicity in THLE cell line, in words: cellular ATP; for IC50: Homo sapiens, read-out: THLE
Protocol: Transformed Human Liver […] (THLE) Assay:
ATP depletion was measured after 72 hours of exposure to a particular concentration of the chemical. […] Cells were cultured in T175 Human fibronectin/collagen/bovine serum albumin coated flasks. […] Plates were incubated for 24 hours at 37° C., 5% CO2.
All compounds were initially solubilized in 100% DMSO. This dosing scheme contained 32 compounds per plate. Stock plates were prepared using 1 μl aliquots of 100× compound/well (30 mM-0.058 mM). The plates were prepared for dosing by adding 99 μl of cell culture media and mixing. Test compounds were added to cell culture plates by aspirating overnight culture media and replacing with 25 μL/well of media containing test compound using the layout outlined below. The final concentration of DMSO in each well was 1.0%. […] The ATP concentration was determined by reading luminescence using a Wallac Envision plate reader (Perkin Elmer, Waltham, Mass., USA). Percent of viable cells relative to no-drug treated controls was determined for each well.

[2] = test system: isolated rat mitochondria; experiment: Respirometric screening technology (RST) assay; type: biochemical; settings: for RST inhibitory: inhibition of oxidative phosphorylation
Protocol: Respirometric Screening Technology (RST) Assay:
This assay was carried out substantially as described in Hynes et al. Toxicological Sciences 91(1), 186-200 (2006). More specifically, the assay conditions were similar to those described for the “Fluorescence-based assay of mitochondrial respiration” at page 188-189 of the Hynes reference.
Mitochondrial dysfunction has also been noted as a characteristic feature of many chronic illnesses, including bipolar disorder, Parkinson's disease, schizophrenia, depression, autism, and chronic fatigue syndrome (Morris 2015). Mitochondrial dysfunction can be assessed by measuring mitochondrial oxygen consumption in isolated rat mitochondria using luminescent oxygen-sensitive probes in a respirometric screening technology (RST) assay (Hynes 2006); both inhibition and uncoupling of oxidative phosphorylation in the RST assay were measured for compounds in Table 23.

[3] = test system: CYP3A4; experiment: Single point time dependent inhibition (SPTDI) assay; type: in vitro ADME, human
Protocol: Single Point Time Dependent Inhibition (SPTDI) Assay:
The objective of this study was to investigate the potential of a series of carboxamides to be time dependent inactivators of CYP3A isozymes, in vitro, using midazolam and testosterone as probe substrates for CYP 3A4/5 activity incubated with pooled human liver microsomes (HLM). Pooled HLMs (0.1-1.0 mg/ml) were pre-incubated with individual carboxamides at initial substrate concentrations of 6 or 10 μM in the presence and absence of NADPH (1.3 mM). Pre-incubations (n=2/compound) were performed for 30 min at 37° C. After pre-incubation, a 10-fold dilution of the incubate (0.02 ml) was added to the probe substrate incubate (0.18 ml) containing the respective probe P450 isozyme substrate (midazolam or testosterone for CYP3A, 1 uM), and was incubated at 37° C. The combined incubation reactions were terminated and analyzed for marker substrate activity (Ex: hydroxyl metabolite of midazolam and 6β hydroxy testesterone) as described previously (Walsky and Obach, 2004; Obach et al., 2007). Terminated incubation mixtures were filtered and analyzed by liquid chromatography (LC)-tandem mass spectrometry (MS/MS) for metabolites as described previously (Walsky and Obach, 2004). To determine kobs,app values, the decrease in natural logarithm of the activity over time was plotted for each inactivator concentration, and kobs,app values were described as the negative slopes of the lines. Inactivation kinetic parameters were determined using nonlinear regression of the data to the expression in eq. 1:
[formula] Statistical significance of kobs between solvent and test incubations was inferred using analysis performed by Yates et al. (Yates P, Eng H, Di L, Obach R S. Drug Metab Dispos 2012; 40:2289-96).
Irreversible inhibition, or time-dependent inhibition (TDI) of cytochrome P450s (CYPs) is generally characterized by an increase in enzyme inhibition with respect to time and inhibitor concentration (Grimm 2009). In cases where enzyme inhibition requires metabolic turnover, the mechanism generally involves the formation of a reactive inhibitory intermediate that may irreversibly inactivate CYPs; this mechanism could cause clinical drug-drug interactions due to inhibition of the relevant CYP responsible for metabolizing the victim drug (Grimm 2009; Rowland Yeo 2011). Hazard assessment for irreversible CYP450 inhibitory potential of CYP3A was performed for several compounds in Table 22 using the single point time dependent inhibition (SPTDI) assay, which measures the pseudo-first order rate constant of inactivation (kobs) at a single high concentration (6-10 μM) of a test compound (Zimmerlin 2011). Based on the analysis performed by Yates (2008), compounds showing a kobs of >0.008 min^−1 in this assay are considered to have a potential for TDI, and kobs<0.008 min^−1 are negative or may have a very weak potential for TDI at CYP3A4.

[4] = biological target: T1, human kappa opioid receptor (hKOR) (Homo sapiens, UniProt P41145); experiment: Kappa radioligand binding assay ([3H]diprenorphine, CHO cell membranes); settings: for Selectivity hMOR/hKOR: selectivity ratio calculated by dividing the hMOR Ki by the hKOR Ki
T1 construct: expressed in transfected cells; host or cells: CHO cells
T1 sequence (P41145 whole entry): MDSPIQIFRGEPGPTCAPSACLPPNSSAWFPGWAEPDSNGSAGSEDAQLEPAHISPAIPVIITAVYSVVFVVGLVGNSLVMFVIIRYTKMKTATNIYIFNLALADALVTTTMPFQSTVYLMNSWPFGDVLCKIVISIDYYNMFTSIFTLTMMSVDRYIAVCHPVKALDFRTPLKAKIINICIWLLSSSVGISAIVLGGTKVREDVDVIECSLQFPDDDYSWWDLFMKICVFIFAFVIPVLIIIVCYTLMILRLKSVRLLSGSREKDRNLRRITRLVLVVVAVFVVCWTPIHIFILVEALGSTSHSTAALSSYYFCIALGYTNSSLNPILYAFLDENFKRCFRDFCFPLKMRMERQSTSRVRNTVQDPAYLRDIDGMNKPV
How it was run: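 Membranes from CHO cells expressing human kappa receptor incubated 1 h at room temperature with compound and 0.6 nM [3H]diprenorphine in 50 mM Tris pH 7.4, 1 mM EDTA, 5 mM MgCl2. Nonspecific binding defined with 10 μM naltrexone; filtration, scintillation counting; IC50 from 4-parameter fit converted to Ki via Cheng-Prusoff.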

[5] = THLE-2, ATP cell viability, 72 hours
[6] = Table 19, geometric mean of 2-6 determinations unless otherwise indicated (Example 3: >=7), read-out: hKOR binding assay Ki
[7] = Table 20, radioligand binding, read-out: hKOR binding assay Ki
[8] = radioligand binding, [3H]diprenorphine, read-out: hKOR Ki

Structure (SMILES) | activity in the RST assay (inhibition / uncoupling of oxidative phosphorylation), in words [2] | Ki [4, 6] | Ki [4, 7] | Ki [4, 8] | cytotoxicity in THLE cell line, in words ([1]; 72 hours) | IC50 [1, 5] | RST inhibitory [2] | risk of time dependent inhibition (TDI) at CYP3A4, in words [3] | risk of time dependent inhibition (TDI) at CYP3A4, in words ([3]; listed as Compound 12) | SPTDI CYP3A4 kobs ([3]; single high dose of 10 μM) | selectivity for KOR over MOR, in words [4] | Selectivity hMOR/hKOR [4] | risk of time dependent inhibition (TDI) at CYP3A4, in words ([3]; listed as Compound 8) | IC50 ([1]; THLE-2, 72 h) | SPTDI CYP3A4 kobs ([3]; single dose of 6 μM) | SPTDI kobs at CYP3A4 ([3]; tested at 6 μM) | SPTDI kobs at CYP3A4 ([3]; tested at 10 μM) | Ki ([4]; hKOR binding assay Ki, Table 20, radioligand binding) | risk of time dependent inhibition (TDI) at CYP3A4, in words ([3]; listed as Compound 11)
NC(=O)c1ccc(Oc2ccc(CN3CCC(c4ccccc4)C3)cc2)nc1 (stereo not drawn) [Comparator A, reference compound] |  |  | 3.1 nM |  |  | > 300000 nM |  |  |  |  |  | 0.03 |  |  |  |  |  |  | 
NC(=O)c1ccc(Oc2ccc(CN3CCCCC3c3ccccc3)cc2)nc1 (stereo not drawn) [Comparator B] |  |  |  |  |  | 224000 nM | No effect |  |  | 0.0041 min⁻¹ |  |  |  |  |  |  |  |  | 
NC(=O)c1ccc(Oc2ccc(CN3CCCC3c3ccccc3)cc2)nc1 (stereo not drawn) [Comparator D] |  |  | 5.8 nM |  |  |  | No effect |  |  | 0.0065 min⁻¹ |  | 28 |  | 179000 nM |  |  |  |  | 
Cc1cc(C)cc([C@@H]2CCCN2Cc2ccc(Oc3ccc(C(N)=O)cc3F)cc2)c1 [Comparator E, reference compound] | μM inhibitory activity |  | 0.2 nM |  | cytotoxicity at lower concentrations | 26000 nM | 19 µM | potential risk of CYP3A4 TDI |  |  |  | 39 |  |  | 0.0113^2 min−1 | 0.011 min⁻¹ |  |  | 
NC(=O)c1ccc(Oc2ccc(CN3CCC[C@H]3c3cccc(F)c3)cc2)c(F)c1 [Comparator F] |  |  |  |  | cytotoxicity at lower concentrations |  | 66 µM | potential risk of CYP3A4 TDI |  | 0.0133 min⁻¹ |  | 35 |  | 37000 nM |  |  | 0.0133 min⁻¹ | 1.1 nM | 
Cc1nn(C)cc1[C@@H]1CCCN1Cc1ccc(Oc2ccc(C(N)=O)cc2)cc1 [Example 11, 4-(4-{[(2S)-2-(1,3-Dimethyl-1H-pyrazol-4-yl)pyrrolidin-1-yl]methyl}phenoxy)benzamide] | no significant activity | 1.21 nM | 1.2 nM | 1 to 3 nM | little to no cytotoxicity |  | No effect | low to no significant risk for TDI at CYP3A4 |  | 0.0055 min⁻¹ | more selective than the phenyl examples, Comparators A and B | 42 |  | > 300000 nM |  |  |  |  | not time dependent inactivators of CYP3A4

Second part, led by results:

activity in the RST assay (inhibition / uncoupling of oxidative phosphorylation), in words [2] | Ki [4, 6] | Ki [4, 7] | Ki [4, 8] | Structure (SMILES) | cytotoxicity in THLE cell line, in words ([1]; 72 hours) | IC50 [1, 5] | RST inhibitory [2] | risk of time dependent inhibition (TDI) at CYP3A4, in words [3] | risk of time dependent inhibition (TDI) at CYP3A4, in words ([3]; listed as Compound 12) | SPTDI CYP3A4 kobs ([3]; single high dose of 10 μM) | selectivity for KOR over MOR, in words [4] | Selectivity hMOR/hKOR [4] | risk of time dependent inhibition (TDI) at CYP3A4, in words ([3]; listed as Compound 8) | IC50 ([1]; THLE-2, 72 h) | SPTDI CYP3A4 kobs ([3]; single dose of 6 μM) | SPTDI kobs at CYP3A4 ([3]; tested at 6 μM) | SPTDI kobs at CYP3A4 ([3]; tested at 10 μM) | Ki ([4]; hKOR binding assay Ki, Table 20, radioligand binding) | risk of time dependent inhibition (TDI) at CYP3A4, in words ([3]; listed as Compound 11)
no significant activity | 1.47 nM | 1.5 nM | 1 to 3 nM | COc1nn(C)cc1[C@@H]1CCCN1Cc1ccc(Oc2ccc(C(N)=O)cc2)cc1 (single isomer, unassigned) [Example 12] | little to no cytotoxicity | > 300000 nM | No effect | low to no significant risk for TDI at CYP3A4 | not time dependent inactivators of CYP3A4 | 0.0042 min⁻¹ | more selective than the phenyl examples, Comparators A and B | 31 |  |  |  |  |  |  | 
no significant activity | 2.56 nM | 2.6 nM | 1 to 3 nM | COc1nn(C)cc1C1CCCN1Cc1ccc(Oc2ccc(C(N)=O)cc2F)cc1 (single isomer, unassigned; (-)) [Example 8, (−)-3-Fluoro-4-(4-{[2-(3-methoxy-1-methyl-1H-pyrazol-4-yl)pyrrolidin-1-yl]methyl}phenoxy)benzamide] | little to no cytotoxicity | > 300000 nM | No effect | low to no significant risk for TDI at CYP3A4 |  | 0.0044 min⁻¹ | more selective than the phenyl examples, Comparators A and B | 37 | not time dependent inactivators of CYP3A4 |  |  |  |  |  | 
μM inhibitory activity |  | 1.2 nM |  | NC(=O)c1ccc(Oc2ccc(CN3CCCC3c3cccnc3)cc2)c(Cl)c1 (stereo not drawn) [Comparator C] |  | 177000 nM | 21 µM |  |  |  |  | 17 |  |  |  |  |  |  | 
